Type in all cases: in vivo
In assay [1] the test system is Human non-small lung cancer cell line NCI-H358. The experiment in a line: Antitumor study (7): NCI-H358 subcutaneous xenograft. The conditions noted are these: Day 115; NCI-H358 s.c. in female SCID mice; Compound A feed mix 0.25% Day 24 to Day 66; TROP2-ADC (1) 10 mg/kg i.v. Day 24 and Day 45. How it is done: (§1) Measurement and calculation formula: In all studies, the major axis and minor axis of tumors were measured once a week or twice a week with an electronic digital caliper, and the estimated tumor volume (mm^3) was calculated. The calculation formula is as shown below.
(§2) Tumor growth inhibition (TGI) was calculated in accordance with the following calculation formula.
(§3) [formula] • T: Average estimated tumor volume of mice of test substance administration group • C: Average estimated tumor volume of mice of control group
(§4) The HER2-ADC (1) was diluted with ABS buffer (10 mM acetate buffer [pH 5.5], 5% sorbitol), and intravenously administered in a fluid volume of 10 mL/kg to the tail vein. The Compound A was orally administered by a feed mix containing 0.3% of Compound A.
(§5) These methods are common to Examples 5 to 8, and Examples 11 to 16. In Example 12 to Example 16, TROP2-ADC (1), HER3-ADC (1), CD37-ADC (1), or B7-H3-ADC (1) was used in the evaluation. Moreover, the Compound A was orally administered by a feed mix containing 0.25% of Compound A in Example 12 to Example 16.
Human non-small lung cancer cell line NCI-H358, which was purchased from ATCC (American Type Culture Collection), was suspended into 50% Matrigel matrix and subcutaneously transplanted at 3×10^6 cells into the right side of each female SCID mouse (CLEA Japan, Inc.) (Day 0). […]

Assay [2] has as its system Human diffuse large B-cell lymphoma cell line WSU-DLCL2. The experiment in a line: Antitumor study (9): WSU-DLCL2 subcutaneous xenograft. The conditions noted are these: Day 44; WSU-DLCL2 s.c. in female SCID mice; Compound A feed mix 0.25% Day 16 to Day 44; CD37-ADC (1) 1 mg/kg i.v. Day 16. How it is done:
as §1, §2, §3, §4, §5
Human diffuse large B-cell lymphoma cell line WSU-DLCL2, which was purchased from DSMZ (Deutsche Sammlung von Mikroorganismen und Zellkulturen GmbH), was suspended into DPBS and subcutaneously transplanted at 1×10^7 cells into the right side of each female SCID mouse (CLEA Japan, Inc.) (Day 0). […]

In assay [3] the test system is Human breast cancer cell line JIMT-1. The experiment in a line: Antitumor study (8): JIMT-1 subcutaneous xenograft, HER3-ADC (1). The conditions noted are these: Day 46; JIMT-1 s.c. in female SCID mice; Compound A feed mix 0.25% Day 11 to Day 39; HER3-ADC (1) 10 mg/kg i.v. Day 11. How it is done: as §1, §2, §3, §4, §5
Human breast cancer cell line JIMT-1, which was purchased from DSMZ (Deutsche Sammlung von Mikroorganismen und Zellkulturen GmbH), was suspended into saline and subcutaneously transplanted at 5×10^6 cells into the right side of each female SCID mouse (CLEA Japan, Inc.) (Day 0). […]

Assay [4] has as its system Human gastric cancer cell line NCI-N87. The experiment in a line: Antitumor study (1): NCI-N87 subcutaneous xenograft. The note with it: Day 63; NCI-N87 s.c. in female SCID mice; Compound A feed mix 0.3% Day 6 to Day 34; HER2-ADC (1) 2 mg/kg i.v. Day 10. Here is the method:
as §1, §2, §3, §4, §5
Human gastric cancer cell line NCI-N87, which was purchased from ATCC (American Type Culture Collection), was suspended into DPBS (Dulbecco's phosphate-buffered saline) and subcutaneously transplanted at 1×10^7 cells into the right side of each female SCID (Severe Combined Immunodeficient) mouse (CLEA Japan, Inc.) (Day 0). […]

Assay [5] concerns Human neuroendocrine prostate cancer cell line NCI-H660. The experiment in a line: Antitumor study (10): NCI-H660 subcutaneous xenograft. The conditions noted are these: Day 58; NCI-H660 s.c. in castrated male SCID mice; Compound A feed mix 0.25% Day 29 to Day 58; B7-H3-ADC (1) 0.3 mg/kg i.v. Day 29 and Day 43. How it is done:
as §1, §2, §3, §4, §5
Human neuroendocrine prostate cancer cell line NCI-H660, which was purchased from ATCC (American Type Culture Collection), was suspended into 50% Matrigel matrix and subcutaneously transplanted at 2×10^6 cells into the right side of each castrated male SCID mouse (CLEA Japan, Inc.) (Day 0). […]

The test system of assay [6] is Human breast cancer cell line ZR-75-1. The experiment in a line: Antitumor study (5): ZR-75-1 subcutaneous xenograft. The note with it: Day 49; ZR-75-1 s.c. in female NSG mice (estradiol cypionate weekly); Compound A feed mix 0.3% Day 14 to Day 42; HER2-ADC (1) 5 mg/kg i.v. Day 14. Here is the method: as §1, §2, §3, §4
These methods are common to Examples 5 to 8, and Examples 11 to 16. In Example 12 to Example 16, TROP2-ADC (1), HER3-ADC (1), CD37-ADC (1), or B7-H3-ADC (1) was used in the evaluation. Moreover, the Compound A was orally administered by a feed mix containing 0.25% of Compound A in Example 12 to Example 16. […]

The test system of assay [7] is Human breast cancer cell line JIMT-1. The experiment in a line: Antitumor study (2): JIMT-1 subcutaneous xenograft, HER2-ADC (1). The note with it: Day 52; JIMT-1 s.c. in female SCID mice; Compound A feed mix 0.3% Day 14 to Day 42; HER2-ADC (1) 10 mg/kg i.v. Day 18. Here is the method: as §1, §2, §3, §4, §5
Human breast cancer cell line JIMT-1, which was purchased from DSMZ (Deutsche Sammlung von Mikroorganismen und Zellkulturen GmbH), was suspended into DPBS and subcutaneously transplanted at 5×10^6 cells into the right side of each female SCID mouse (CLEA Japan, Inc.) (Day 0). […]

The test system of assay [8] is Human breast cancer cell line MDA-MB-453. The experiment in a line: Antitumor study (3): MDA-MB-453 subcutaneous xenograft. The conditions noted are these: Day 74; MDA-MB-453 s.c. in female SCID mice; Compound A feed mix 0.3% Day 18 to Day 46; HER2-ADC (1) 1 mg/kg i.v. Day 22. Here is the method:
as §1, §2, §3, §4, §5
Human breast cancer cell line MDA-MB-453, which was purchased from ATCC, was suspended into 50% Matrigel matrix and subcutaneously transplanted at 1×10^7 cells into the right side of each female SCID mouse (CLEA Japan, Inc.) (Day 0). Eighteen days later, the mice were divided into groups based on estimated tumor volumes. […]

The subject of assay [9] is Human non-small lung cancer cell line Calu-3. The experiment in a line: Antitumor study (6): Calu-3 subcutaneous xenograft. The conditions noted are these: Day 35; Calu-3 s.c. in female SCID mice; Compound A feed mix 0.3% Day 14 to Day 42; HER2-ADC (1) 1 mg/kg i.v. Day 14. Here is the method:
as §1, §2, §3, §4, §5
Human non-small lung cancer cell line Calu-3, which was purchased from ATCC (American Type Culture Collection), was suspended into Matrigel matrix and subcutaneously transplanted at 3×10^6 cells into the right side of each female SCID mouse (The Jackson Laboratory Japan, Inc.) (Day 0). […]

Assay [10] concerns Human breast cancer cell line MX-1. The experiment in a line: Antitumor study (4): MX-1 subcutaneous xenograft. The note with it: Day 51; MX-1 s.c. in female SCID mice; Compound A feed mix 0.3% Day 13 to Day 41; HER2-ADC (1) 3 mg/kg i.v. Day 17. Here is the method:
as §1, §2, §3, §4, §5
Human breast cancer cell line MX-1, which was purchased from CLS (Cell Lines Service), was suspended into 50% Matrigel matrix and subcutaneously transplanted at 5×10^6 cells into the right side of each female SCID mouse (CLEA Japan, Inc.) (Day 0). […]

The structures appear in SMILES notation.

`Cc1cc(C)c(CNC(=O)c2cc(Cl)c3c(c2C)O[C@@](C)([C@H]2CC[C@H](N(C)C)CC2)O3)c(=O)[nH]1` [Compound A, (2R)-7-chloro-2-[trans-4-(dimethylamino)cyclohexyl]-N-[(4,6-dimethyl-2-oxo-1,2-dihydropyridin-3-yl)methyl]-2,4-dimethyl-1,3-benzodioxole-5-carboxamide p-toluene sulfonate]: the “Tumor growth inhibition (TGI)” value in assay [1] was found to be 20%; in assay [2], 31%; in [3] it was 41%; in assay [4] it was 38%; in assay [5] it was 80%; in [6], 53%. Further, the “Tumor growth inhibition (TGI)” value in assay [7] amounted to 19%; in [8], 41%; in [9], 20%; in [10], 9%.
